Reference: patent US20060247263A1, “Substituted heterocyclic compounds and methods of use” (Amgen Inc., priority 2005, published 2006)

Test system: LPS induced TNF release
Test: Lipopolysaccharide-Activated THP1 Cell TNF Production Assay
Type: cell-based
Conditions: Homo sapiens, THP-1, THP1 cells, 3 h at 37° C., secreted TNF-α
Protocol: Lipopolysaccharide-Activated THP1 Cell TNF Production Assay
THP1 cells are resuspended in fresh THP1 media (RPMI 1640, 10% heat-inactivated FBS, 1XPGS, 1XNEAA, plus 30 μM βME) at a concentration of 1E6/mL. One hundred microliters of cells per well are plated in a polystyrene 96-well tissue culture. One microgram per mL of bacterial LPS is prepared in THP1 media and is transferred to the wells. Test compounds are dissolved in 100% DMSO and are serially diluted 3 fold in a polypropylene 96-well microtiter plate (drug plate). HI control and LO control wells contain only DMSO. One microliter of test compound from the drug plate followed by 10 μL of LPS are transferred to the cell plate. The treated cells are induced to synthesize and secrete TNF-α at 37° C. for 3 h. Forty microliters of conditioned media are transferred to a 96-well polypropylene plate containing 110 μL of ECL buffer (50 mM Tris-HCl pH 8.0, 100 mM NaCl, 0.05% Tween 20, 0.05% NaN3 and 1% FBS) supplemented with 0.44 nM MAB610 monoclonal Ab (R&D Systems), 0.34 nM ruthenylated AF210NA polyclonal Ab (R&D Systems) and 44 μg/mL sheep anti-mouse M280 Dynabeads (Dynal). After a 2 h incubation at RT with shaking, the reaction is read on the ECL M8 Instrument (IGEN Inc.). A low voltage is applied to the ruthenylated TNF-α immune complexes, which in the presence of TPA (the active component in Origlo), results in a cyclical redox reaction generating light at […]. The amount of secreted TNF-α in the presence of compound compared with that in the presence of DMSO vehicle alone (HI control) is calculated using the formula:% control (POC)=(cpd−average LO)/(average HI−average LO)*100. Data (consisting of POC and inhibitor concentration in μM) is fitted to a 4-parameter equation (y=A+((B−A)/(1+((x/C)ˆD))), where A is the minimum y (POC) value, B is the maximum y (POC), C is the x (cpd concentration) at the point of inflection and D is the slope factor) using a Levenburg-Marquardt non-linear regression algorithm.

| Structure (SMILES) | IC50 |
| --- | --- |
| CN(c1cc(-c2ccccc2)c2ncn(C)c2c1)c1ccnc(NCCc2cccnc2)n1 [N4-methyl-N-4-(3-methyl-7-phenyl-3H-benzo[d]imidazol-5-yl)-N-2-(2-(pyridin-3-yl)ethyl)pyrimidine-2,4-diamine] | ≤ 20 µM |
| CN(c1cc(-c2ccccc2)c2nc[nH]c2c1)c1ccnc(NCCc2cccnc2)n1 [N4-Methyl-N-4-(7-phenyl-3H-benzo[d]imidazol-5-yl)-N-2-(2-(pyridin-3-yl)ethyl)-pyrimidine-2,4-diamine] | ≤ 20 µM |
| CC(C)CNc1nccc(N(C)c2cc(-c3ccccc3)c3ncn(C)c3c2)n1 [N2-isobutyl-N-4-methyl-N-4-(3-methyl-7-phenyl-3H-benzo[d]imidazol-5-yl)-pyrimidine-2,4-diamine] | ≤ 20 µM |
| CC(Cc1cccc(CO)c1)Nc1nccc(N(C)c2cc(-c3ccccc3)c3ncn(C)c3c2)n1 (stereo not shown) [(3-(2-(4-(Methyl(3-methyl-7-phenyl-3H-benzo[d]imidazol-5-yl)amino)pyrimidin-2-ylamino)propyl)phenyl)methanol] | ≤ 20 µM |
| CN(c1cc(-c2ccccc2)c2ncn(C)c2c1)c1ccnc(NC2CCN(C(=O)OC(C)(C)C)CC2)n1 [tert-Butyl 4-(4-(methyl(3-methyl-7-phenyl-3H-benzo[d]imidazol-5-yl)amino)-pyrimidin-2-ylamino)piperidine-1-carboxylate] | ≤ 20 µM |
| CC(Cc1cccc(CN)c1)Nc1nccc(N(C)c2cc(-c3ccccc3)c3ncn(C)c3c2)n1 (stereo not shown) [N2-(1-(3-(Aminomethyl)phenyl)propan-2-yl)-N-4-methyl-N-4-(3-methyl-7-phenyl-3H-benzo[d]imidazol-5-yl)pyrimidine-2,4-diamine] | ≤ 20 µM |
| CC(Cc1cccc(CN)c1)Nc1nccc(N(C)c2cc(-c3ccccc3)c3c(c2)ncn3C)n1 (stereo not shown) [N2-(1-(3-(aminomethyl)phenyl)propan-2-yl)-N-4-methyl-N-4-(1-methyl-7-phenyl-1H-benzo[d]imidazol-5-yl)pyrimidine-2,4-diamine] | ≤ 20 µM |
| CC(Cc1cccc(CN=[N+]=[N-])c1)Nc1nccc(N(C)c2cc(-c3ccccc3)c3ncn(C)c3c2)n1 (stereo not shown) [N2-(1-(3-(Azidomethyl)phenyl)propan-2-yl)-N-4-methyl-N-4-(3-methyl-7-phenyl-3H-benzo[d]imidazol-5-yl)pyrimidine-2,4-diamine] | ≤ 20 µM |
| CN(c1cc(-c2ccccc2)c2ncn(C)c2c1)c1ccnc(NC2CCC(N)CC2)n1 (stereo not shown) [N2-((1 s,4s)-4-aminocyclohexyl)-N-4-methyl-N-4-(3-methyl-7-phenyl-3H-benzo[d]imidazol-5-yl)pyrimidine-2,4-diamine] | ≤ 20 µM |

Second part, the compound after the results:

| IC50 | Structure (SMILES) |
| --- | --- |
| ≤ 20 µM | CN(c1cc(-c2ccccc2)c2ncn(C)c2c1)c1ccnc(NCCc2ccccc2Cl)n1 [N2-(2-chlorophenethyl)-N-4-methyl-N-4-(3-methyl-7-phenyl-3H-benzo[d]imidazol-5-yl)pyrimidine-2,4-diamine] |
| ≤ 20 µM | C[C@H](N)c1cccc(C[C@H](C)Nc2nccc(N(C)c3cc(-c4ccccc4)c4ncn(C)c4c3)n2)c1 [N2-((S)-1-(3-((S)-1-Aminoethyl)phenyl)propan-2-yl)-N-4-methyl-N-4-(3-methyl-7-phenyl-3H-benzo[d]imidazol-5-yl)pyrimidine-2,4-diamine] |
| ≤ 20 µM | CN(c1cc(-c2ccccc2)c2ncn(C)c2c1)c1ccnc(NC2CCNCC2)n1 |
| ≤ 20 µM | CN(c1cc(-c2ccccc2)c2ncn(C)c2c1)c1ccnc(NCCOc2ccccc2)n1 [N-4-methyl-N-4-(3-methyl-7-phenyl-3H-benzo[d]imidazol-5-yl)-N-2-(2-phenoxy-ethyl)pyrimidine-2,4-diamine] |
